Here are results for twelve molecules from patent publication US5786508A, “Substituted kynurenines and process for their preparation” (Pharmacia & Upjohn S.p.A., priority 1995, dated 1998).

Molecules are shown by their SMILES.

Assay [1] relates to Kynurenine Aminotransferase (KAT). As to the kind of experiment: Determination of KAT activity inhibition in rat brain homogenate. The format is biochemical. The following applies: 2 μM [3H]KYN, 2 h at 37° C., pH 8.0. The protocol:
A) Determination of KAT activity inhibition in rat brain homogenate
KAT was measured as described in detail by Okuno et al. (Measurement of rat brain kynurenine amino-transferase at physiological kynurenine concentrations, J. Neurochem., 57, 533-540, 1991).
Briefly, animals were killed by decapitation and the brain tissue was homogenized (1:5 v/w in 5 mM Tris-acetate buffer, pH 8.0, containing 10 mM 2-mercaptoethanol and 50 μM pyridoxal 5'-phosphate) and incubated for 2 h at 37° C. in the presence of 2 μM [^3 H]KYN (30 nCi), 1 mM 2-oxoglutarate and 70 μM pyridoxal 5'-phosphate in 150 mM Tris-acetate buffer, pH 8.0. The reaction was terminated by the addition of trichloroacetic acid.
Newly synthesized [^3 H]KYNA was separated from [^3 H]KYN on a Dowex 50W cation-exchange column and quantitated by liquid scintillation spectrometry. Blanks were obtained by using tissue which had been heat-deactivated for 10 minutes in a boiling water bath.

Another assay deals with T1, KAT (Rattus norvegicus, UniProt Q08415).
T1 construct: a preparation of partially purified enzyme; from tissue; the cited method purifies from rat kidney and brain (own knowledge)
T1 sequence (Q08415 1-423): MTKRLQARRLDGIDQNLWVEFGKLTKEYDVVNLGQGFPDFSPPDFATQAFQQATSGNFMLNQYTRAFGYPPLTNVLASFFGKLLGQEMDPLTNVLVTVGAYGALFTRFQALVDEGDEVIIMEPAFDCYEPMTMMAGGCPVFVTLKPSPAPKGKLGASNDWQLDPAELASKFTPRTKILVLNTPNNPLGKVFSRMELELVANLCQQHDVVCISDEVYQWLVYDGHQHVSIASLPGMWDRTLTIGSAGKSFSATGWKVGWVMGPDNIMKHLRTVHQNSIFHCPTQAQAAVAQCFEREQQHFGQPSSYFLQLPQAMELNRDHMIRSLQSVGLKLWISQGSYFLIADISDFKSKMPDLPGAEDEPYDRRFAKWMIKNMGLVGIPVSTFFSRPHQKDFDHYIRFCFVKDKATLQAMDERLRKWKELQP
Put plainly: Kinetic analysis of KAT inhibitors using a partially purified enzyme preparation. The assay is classed as biochemical. Conditions: KYN 2 μM to 2 mM; double reciprocal plots; pyruvate 1 mM; pH 8.0, 37° C. The protocol: C) Kinetic analysis of KAT inhibitors using a partially Purified enzyme Preparation (Brain Research, 534, 37-44 (1990)
The reaction mixture contained [^3 H]KYN (30 nCi), diluted with unlabelled KYN to yield a final concentration of 2 μM, 1 mM pyruvate, 70 μM pyridoxal 5'-phosphate, 150 mM Tris-acetate buffer, pH 8.0, and a preparation of partially purified enzyme in a total volume of 0.1 ml. Test compounds were included in the incubation mixture as needed. The reaction was started by the addition of pyruvate. After incubation for 2 h at 37° C., the reaction was terminated by the addition of 14 μl of 50% (w/w) trichloroacetic acid. Subsequently, 1 ml of 0.1M HCl was added and denaturated protein was removed by a 4-min centrifugation in a Beckman 52B microfuge. 1 ml of the resulting supernatant was applied to a Dowex 50W column (0.5×1.0 cm; H^+ form) and washed with 1 ml of 0.1M HCl, followed by 1 ml of distilled water. [^3 H]KYNA was eluted with 2 ml of distilled water and quantitated by liquid scintillation spectrometry. Enzyme measurements were performed in triplicate samples. […]
Kinetic experiments were performed using the standard KAT assay described above by varying the concentration of KYN between 2 μM and 2 mM in the absence or presence of set concentrations of test compounds. Double reciprocal plots were constructed and lines of best fit were determined by linear regression analysis.

A further assay deals with KYNA production. As to the kind of experiment: Determination of inhibition of KYNA production by rat tissue slices (cerebral cortex). The format is cell-based. Conditions: 50 μM L-KYN, 2 h at 37° C. The protocol:
B) Determination of inhibition of KYNA production by rat tissue slices
Routinely, slices (base 1×1 mm; weight 1.5 mg/slice) from the cerebral cortex were separated on ice and transferred to culture wells (10 slices/well) containing 1 ml of oxygenated Krebs-Ringer buffer (NaCl, 118.5 mM; KCl, 4.75 mM; CaCl2, 1.77 mM; MgSO4, 1.18 mM; NaH2 PO4, 12.9 mM; NaH2 PO4, 3 mM; glucose, 5 mM; pH 7.4). Subsequently, the tissue was preincubated for 10 min at 37° C. and incubated further for 2 h at 37° C., in the presence of 50 μM L-KYN in an oxygenated chamber, on a shaking water bath. Compounds of the present invention were included in the incubation mixture as needed. Following incubation, the culture wells were immediately placed on ice, and the slices were rapidly separated from the incubation medium. For KYNA determination, 1 ml samples of the incubation medium were immersed in a boiling water bath for 10 min, and the precipitated proteins were removed by centrifugation (8,730×g, 10 min). The supernatants were diluted (1:1, v/v) with 0.2M HCl and applied to Dowex 50W (hydrogen form, Sigma) cation-exchange columns (0.5×2 cm). Subsequently, the columns were washed with 1 ml of 0.1M HCl and 1 ml of water, and the fraction containing KYNA was eluted with 2 ml of water. The eluates were applied to a 3-μm C18 HPLC column (100×3.2 internal diameter, Bioanalytical Systems, West Lafayette, Ind., U.S.A.), and KYNA was isocratically eluted with a mobile phase containing 50 mM ammonium acetate and 5% methanol at a flow rate of 0.5 ml/min. Under these conditions, the retention time of KYNA was ≈7 min.
Data were recorded and calculated with a Hewlett-Packard 3390A integrator connected to a model 160 UV absorbance detector (Beckman Instruments, Berkeley, Calif., U.S.A.) set at 340 nm.

The subject of assay [2] is glycine modulatory site of the N-methyl-D-aspartate (NMDA) receptor complex. The following applies: J. Neurochem., 52, 1319-1328, 1989; in words; cited from earlier work.

In general, Ki refers to the dissociation constant of the complex between target and ligand, obtained from inhibition or displacement. Read a high Ki as lower affinity. By inhibition is commonly meant the share of the control response that was lost under treatment. A higher inhibition goes with a strong effect. As for `Nc1ccc(Cl)cc1C(=O)CC(N)C(=O)O` (centres unmarked) [FCE 27813, 2-amino-4-(2-amino-5-chlorophenyl)-4-oxo-butyric acid], the “KYNA production % of inhibition” value in assay [1] (100 μM) is 45%. Also, the “KYNA production % of inhibition” value in assay [1] (1000 μM) is recorded as 81%. Further, affinity at KAT was put at a Ki of 88 µM. In the assay with KYNA production, this molecule came in with an inhibition at 100 µM of 63% and an inhibition at 1000 µM of 84%.

As for `Cc1ccc(N)c(C(=O)CC(N)C(=O)O)c1` (centres unmarked) [FCE 27946, 2-amino-4-(2-amino-5-methylphenyl)-4-oxo-butyric acid], the “KYNA production % of inhibition” value was found to be 13% in assay [1] (100 μM) and 51% in assay [1] (1000 μM). In the assay on KYNA production, 1000 µM produced 64% inhibition. The same molecule came in with an inhibition at 300 µM in the assay on KYNA production (at 300 μM (footnote *)) of 50%.

Turning to `Nc1ccc(F)cc1C(=O)CC(N)C(=O)O` (centres unmarked) [FCE 27949, 2-amino-4-(2-amino-5-fluorophenyl)-4-oxo-butyric acid], the results for the “KYNA production % of inhibition” value in assay [1] (100 μM) and in assay [1] (1000 μM) were 30% and 74%, respectively. 100 µM produced 48% inhibition in the assay on KYNA production. The molecule further registered an inhibition at 1000 µM in the assay with KYNA production of 70%.

With `CCc1ccc(N)c(C(=O)CC(N)C(=O)O)c1` (centres unmarked) [FCE 28026, 2-amino-4-(2-amino-5-ethylphenyl)-4-oxo-butyric acid], in assay [1] (100 μM), the “KYNA production % of inhibition” value amounted to 30%. The “KYNA production % of inhibition” value in assay [1] (1000 μM) turned out to be 78%. Also, in the assay with KYNA production, the inhibition at 100 µM is 8% and the inhibition at 1000 µM is 49%.

Regarding `CCCc1ccc(N)c(C(=O)CC(N)C(=O)O)c1` (centres unmarked) [FCE 28244, 2-amino-4-(2-amino-5-n-propylphenyl)-4-oxo-butyric acid], the “KYNA production % of inhibition” value in assay [1] (100 μM) worked out at 50%. Moreover, the “KYNA production % of inhibition” value in assay [1] (1000 μM) worked out at 72%. Also, in the assay on KYNA production, the inhibition at 100 µM is 27% and the inhibition at 1000 µM came to 70%.

As to `Nc1ccc(C2CCCCC2)cc1C(=O)CC(N)C(=O)O` (centres unmarked) [FCE 28263, 2-amino-4-(2-amino-5-cyclohexylphenyl)-4-oxo-butyric acid], the “KYNA production % of inhibition” value in assay [1] (100 μM) stood at 47%. Moreover, in assay [1] (1000 μM), the “KYNA production % of inhibition” value amounted to 77%. In the assay on KYNA production, this molecule had an inhibition at 100 µM of 28% and an inhibition at 1000 µM of 45%.

For `Nc1ccc(Br)cc1C(=O)CC(N)C(=O)O` (centres unmarked) [FCE 28264, 2-amino-4-(2-amino-5-bromophenyl)-4-oxo-butyric acid], the “KYNA production % of inhibition” value in assay [1] (100 μM) was 52%. In addition, the “KYNA production % of inhibition” value in assay [1] (1000 μM) stood at 83%. Also, in the assay with KYNA production, at 100 µM the inhibition was 58% and the inhibition at 1000 µM came out at 72%.

For the molecule `CC(C)c1ccc(N)c(C(=O)CC(N)C(=O)O)c1` (centres unmarked) [FCE 28441, 2-amino-4-(2-amino-5-isopropylphenyl)-4-oxo-butyric acid], the results for the “KYNA production % of inhibition” value in assay [1] (100 μM) and in assay [1] (1000 μM) were 45% and 72%, respectively. In addition, the inhibition at 100 µM in the assay with KYNA production was found to be 5%. For the same molecule, 1000 µM produced 54% inhibition with KYNA production.

As to `Nc1ccc(Cl)cc1C(=O)C[C@@H](N)C(=O)O` [FCE 28442, (R)-(+)-2-amino-4-(2-amino-5-chlorophenyl)-4-oxo-butyric acid], in assay [1] (1000 μM), the “KYNA production % of inhibition” value was found to be 31%. 1000 µM produced 45% inhibition with KYNA production.

Consider `Nc1ccc(Cl)cc1C(=O)C[C@H](N)C(=O)O` [FCE 28443, (S)-(-)-2-amino-4-(2-amino-5-chlorophenyl)-4-oxo-butyric acid], for which the results for the “KYNA production % of inhibition” value in assay [1] (100 μM) and in assay [1] (1000 μM) were 61% and 89%, respectively. The molecule further yielded an inhibition at 100 µM with KYNA production of 67%. Besides, the inhibition at 1000 µM in the assay with KYNA production turned out to be 91%.

As to `O=C(O)c1cc(=O)c2ccccc2[nH]1` [KYNA, Kynurenic Acid], in assay [2], the “affinity to the glycine modulatory site of the NMDA receptor complex” value is “particularly high affinity”.

Usually Km stands for the concentration of substrate that gives half-maximal velocity. In the case of `Nc1ccccc1C(=O)C[C@H](N)C(=O)O` [L-kynurenine, reference compound], the Km on KAT worked out at 369 µM.
